Laboratory results: article PMC8260761, “A bacteriocin-based treatment option for Staphylococcus haemolyticus biofilms” (Scientific Reports, 2021)

How the values were obtained:
Assay in all cases: Spot-on-lawn inhibition assay
Assay type in all cases: cell-based
S. uberis = test system: S. uberis; set-up: key: –: “−” = No inhibition; “+” = Unclear zone; “++” = zone < 1 cm; “+++” = zone ≥ 1 cm; settings: S. uberis 7904-3; 5 µl at 1 mg/ml; n=3
Description: (§1) A semi-quantitative spot-on-lawn inhibitory assay was performed on 51 bacterial indicator strains (Table S1) to determine the bacteriocins inhibition spectra. Overnight cultures were diluted 1:100 in BHI soft agar and distributed on BHI agar plates. Once solidified, bacteriocins with various concentrations were applied on designated spots. The plates were incubated at appropriate temperature O/N and inhibition zones were measured the following day. To determine minimal inhibitory concentration (MIC50) of H1 against clinical S. haemolyticus isolates (Table S2), as well as strains heterologously expressing RseP (Table S4), the microtiterplate antimicrobial assay was performed as previously described[41],[79]. MIC50 was defined as the minimal bacteriocin concentration needs to inhibit the growth of a bacterial strain by at least 50%.

L. monocytogenes = test system: L. monocytogenes; set-up: key: –: “−” = No inhibition; “+” = Unclear zone; “++” = zone < 1 cm; “+++” = zone ≥ 1 cm; settings: L. monocytogenes EDGe; 5 µl at 1 mg/ml; n=3
Description: as §1

Bacillus cereus = test system: Bacillus cereus; set-up: key: –: “−” = No inhibition; “+” = Unclear zone; “++” = zone < 1 cm; “+++” = zone ≥ 1 cm; settings: 5 µl at 1 mg/ml, n=3
Description: as §1

C. piscicola = test system: C. piscicola; set-up: key: –: “−” = No inhibition; “+” = Unclear zone; “++” = zone < 1 cm; “+++” = zone ≥ 1 cm; settings: C. piscicola LMG 2332; 5 µl at 1 mg/ml; n=3
Description: as §1

[1] = test system: Staphylococcus haemolyticus strains; set-up: key to Average inhibition score: –: “−” = No inhibition; “+” = Unclear zone; “++” = zone < 1 cm; “+++” = zone ≥ 1 cm
Description: as §1

S. epidermidis = test system: S. epidermidis; set-up: key: “-“ = No inhibition; “+” = Unclear zone; “++” = zone < 1 cm; “+++”= zone > 1 cm; settings: S. epidermidis LMG 3522; 5 µl at 1 mg/ml; n=3
Description: as §1

Staphylococcus arlettae = test system: Staphylococcus arlettae; set-up: key: “-“ = No inhibition; “+” = Unclear zone; “++” = zone < 1 cm; “+++”= zone > 1 cm; settings: Staphylococcus arlettae LMG 4134; 5 µl at 1 mg/ml; n=3
Description: as §1

Lactobacillus curvatus = settings: 5 µl at 1 mg/ml, n=3
Description: as §1

S. homonis = S. homonis LMG 3129; 5 µl at 1 mg/ml; n=3
Description: as §1

E. faecium = settings: 5 µl at 1 mg/ml, n=3
Description: as §1

With “MKFKFNPTGTIVKKLTQYEIAWFKNKHGYYPWEIPRC [K1, enterocin K1]” the Average inhibition score (S. uberis) was “+”, the Average inhibition score (L. monocytogenes) was “+” and the Average inhibition score (Bacillus cereus; B. cereus LMG 2711) was “+”. The Average inhibition score (Bacillus cereus; B. cereus LMG 2731) was “+”, the Average inhibition score (Bacillus cereus; Bacillus cereus LMG 2805) was “+” and the Average inhibition score (C. piscicola) was “+”. For the same sequence, the Average inhibition score ([1]; S. haemolyticus 4068, 5 μl at 1 mg/ml, n = 3) was “–”, the Average inhibition score ([1]; S. haemolyticus 4069, 5 μl at 1 mg/ml, n = 3) was “–” and the Average inhibition score ([1]; S. haemolyticus 4070, 5 μl at 1 mg/ml, n = 3) was “–”. The Average inhibition score ([1]; S. haemolyticus 4071, 5 μl at 1 mg/ml, n = 3) was “–”, the Average inhibition score ([1]; S. haemolyticus 4072, 5 μl at 1 mg/ml, n = 3) was “–” and the Average inhibition score ([1]; S. haemolyticus 4073, 5 μl at 1 mg/ml, n = 3) was “–”. For the same sequence, the Average inhibition score ([1]; S. haemolyticus 7067_4_21, 5 μl at 1 mg/ml, n = 3) was “–”, the Average inhibition score ([1]; S. haemolyticus 7067_4_28, 5 μl at 1 mg/ml, n = 3) was “–” and the Average inhibition score ([1]; S. haemolyticus 7067_4_39, 5 μl at 1 mg/ml, n = 3) was “–”. The Average inhibition score ([1]; S. haemolyticus 7067_4_48, 5 μl at 1 mg/ml, n = 3) was “–”, the Average inhibition score ([1]; S. haemolyticus 7067_4_49, 5 μl at 1 mg/ml, n = 3) was “–” and the Average inhibition score ([1]; S. haemolyticus 7067_4_56, 5 μl at 1 mg/ml, n = 3) was “–”. For the same sequence, the Average inhibition score ([1]; S. haemolyticus 7067_4_60, 5 μl at 1 mg/ml, n = 3) was “++ (“++” = zone < 1 cm)”, the Average inhibition score ([1]; S. haemolyticus 7067_4_66, 5 μl at 1 mg/ml, n = 3) was “–” and the Average inhibition score ([1]; S. haemolyticus 7067_4_67, 5 μl at 1 mg/ml, n = 3) was “–”. For the same sequence, the Average inhibition score ([1]; S. haemolyticus 7067_4_71, 5 μl at 1 mg/ml, n = 3) was “–”, the Average inhibition score ([1]; S. haemolyticus 7067_4_84, 5 μl at 1 mg/ml, n = 3) was “–” and the Average inhibition score ([1]; S. haemolyticus 7068_7_63, 5 μl at 1 mg/ml, n = 3) was “–”. The Average inhibition score ([1]; S. haemolyticus LMG 4133, 5 µl at 1 mg/ml, n=3) was “+”, the Average inhibition score ([1]; S. haemolyticus SH01, 5 μl at 1 mg/ml, n = 3) was “–” and the Average inhibition score ([1]; S. haemolyticus SH04, 5 μl at 1 mg/ml, n = 3) was “–”. The Average inhibition score ([1]; S. haemolyticus SH09, 5 μl at 1 mg/ml, n = 3) was “–”, the Average inhibition score ([1]; S. haemolyticus SH10, 5 μl at 1 mg/ml, n = 3) was “+” and the Average inhibition score ([1]; S. haemolyticus SH14, 5 μl at 1 mg/ml, n = 3) was “–”. The Average inhibition score ([1]; S. haemolyticus SH20, 5 μl at 1 mg/ml, n = 3) was “+”, the Average inhibition score ([1]; S. haemolyticus SH46, 5 μl at 1 mg/ml, n = 3) was “–” and the Average inhibition score ([1]; S. haemolyticus SH47, 5 μl at 1 mg/ml, n = 3) was “+”. For the same sequence, the “Inhibition zones at three concentrations” value ([1]; six S. haemolyticus strains 4068–4073, 0.04, 0.2 and 1.0 mg/ml, 5 µl spotted) was “did not result in any inhibition”, the Average inhibition score (S. epidermidis) was “-” and the Average inhibition score (Staphylococcus arlettae) was “-”. The Average inhibition score (Lactobacillus curvatus; L. curvatus LMG 2353) was “+++ (“+++”= zone > 1 cm)”, the Average inhibition score (Lactobacillus curvatus; Lactobacillus curvatus LTH 1174) was “+++ (“+++”= zone > 1 cm)” and the Average inhibition score (S. homonis) was “++ (“++” = zone < 1 cm)”. For the same sequence, the Average inhibition score (E. faecium; E. faecium AL41) was “++ (“++” = zone < 1 cm)”, the Average inhibition score (E. faecium; E. faecium L50) was “++ (“++” = zone < 1 cm)” and the Average inhibition score (E. faecium; E. faecium P13) was “+++ (“+++”= zone > 1 cm)”. The Average inhibition score (E. faecium; E. faecium P21) was “++ (“++” = zone < 1 cm)”.
